Test results as given in patent US4262127A, “3-Alkoxy-2-alkylisothiazolium salts and their derivatives” (Givaudan Corporation, priority 1979, dated 1981).
Read-outs that look alike come from different tables or passages of the source.

System: Pseudomonas aeruginosa
Test: prevention of microbial growth in cutting oil emulsions (Kutwell 30)
Format: cell-based
Conditions: 3.3% cutting oil emulsion (Kutwell 30), 28° C., read-out: concentration required to prevent microbial growth
Description: In running these tests, two-fold serial dilutions of 6% solutions of the compound in dimethylformamide was added to 3.3% cutting oil emulsions. The emulsions were prepared by diluting with water a commercially available cutting oil concentrate. The emulsions were inoculated with a culture of Pseudomonas aeruginosa and incubated at 28° C. on a rotary shaker. At weekly intervals, the emulsions were examined for bacteria by conventional streakplate methods. The emulsions were then reinoculated with Pseudomonas aeruginosa and reincubated.

[1] = 168 h, incubation period 1 week
[2] = 336 h, incubation period 2 weeks, reinoculated weekly
[3] = 504 h, incubation period 3 weeks, reinoculated weekly
[4] = 672 h, incubation period 4 weeks, reinoculated weekly

SMILES	MIC [1]	MIC [2]	MIC [3]	MIC [4]
COc1c(Br)cs[n+]1C	< 32 µg/mL	32 µg/mL	32 µg/mL	32 µg/mL
COc1ccs[n+]1C	32 µg/mL	64 µg/mL	64 µg/mL	64 µg/mL
C[n+]1sccc1OCc1ccccc1	< 32 µg/mL	< 32 µg/mL	< 32 µg/mL	< 32 µg/mL
C=CCOc1ccs[n+]1C	< 32 µg/mL	< 32 µg/mL	32 µg/mL	32 µg/mL
